According to patent US20230348450A1, “CARBOXYLIC ACID-CONTAINING COMPOUNDS AS MODULATORS OF BIS-PHOSPHOGLYCERATE MUTASE FOR THE TREATMENT OF SICKLE CELL DISEASE” (Genzyme Corporation, priority 2020, published 2023):

How the values were obtained:
[1] = test system: human red blood cells; test: Human Cell-Based Assay; settings: Erythrocyte; human whole blood suspension, 37° C., 24 h; metabolites (2,3-BPG, ATP) by LC/MS; read-out: hRBC EC50
Experimental: Example B3. Human Cell-Based Assay
The following materials were used in this assay: DMSO; Hemox buffer (30 mM TES, 135 mM NaCl, 5 mM KCl, pH 7.4); Inosine (100 mM in hemox buffer); Glucose (1 M in water); human red blood cells; LC/MS Optima grade methanol; LC/MS Optima grade water; and Incubation buffer (30 mM TES, 135 mM NaCl, 5 mM KCl, 50 mM inosine, 20 mM glucose pH 7.4).
Test compounds were loaded onto a 96-well plate (final concentration of DMSO was 1%). 10 mL whole blood was resuspended with an equivalent amount of 2× incubation buffer to make 25% het & 50% plasma solution. The final solution contains 10 mM glucose and 25 mM inosine. The blood suspension (100 uL) was added to the wells of the plate. The plate was covered with an adhesive foil cover and plastic lid, and incubated at 37° C. for 24 h. The samples were extracted through an SPE column and the metabolites (2,3-BPG, ATP) were analyzed by LC/MS.

[2] = target: hBPGM (Homo sapiens (Human), UniProt P07738); test: BPGM Synthase Assay; assay type: biochemical; settings: Table 6 additional results; read-out: huBPGM: synthase Enzyme IC50
How it was run: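 BPGM (5 nM) with GAPDH (0.4 U/mL) was incubated with compound for 30 min at RT in pH 7.4 Tris buffer with 3.23 mM KH2PO4 and 1 mM DTT. Reaction ran 60 min with NAD, 3PG and GAP (substrate solution 2 mM, 20 μM and 800 μM). After koningic acid stop, NADH fluorescence was read, then resorufin from diaphorase/resazurin coupling.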

[3] = target: human Bisphosphoglycerate mutase (hBPGM) (Homo sapiens (Human), UniProt P07738); test: BPGM Phosphatase Assay; assay type: biochemical; settings: Table 6 additional results; read-out: huBPGM: phosphatase Enzyme EC50
Experimental: Solutions of the test compounds were then added to the plate and the DMSO content was normalized across the plate. The plate was incubated at RT for 15 min. Next, the substrate 2,3-BPG (5 μL) was added to all the wells, and the plate was sealed and incubated for 24 hr at RT. After incubation, BIOMOL green dye (40 μL) was added to all the wells, the plate was shaken to mix, and the plate was incubated at RT for 20-30 min.

Sequence of human Bisphosphoglycerate mutase (hBPGM) (P07738 whole entry): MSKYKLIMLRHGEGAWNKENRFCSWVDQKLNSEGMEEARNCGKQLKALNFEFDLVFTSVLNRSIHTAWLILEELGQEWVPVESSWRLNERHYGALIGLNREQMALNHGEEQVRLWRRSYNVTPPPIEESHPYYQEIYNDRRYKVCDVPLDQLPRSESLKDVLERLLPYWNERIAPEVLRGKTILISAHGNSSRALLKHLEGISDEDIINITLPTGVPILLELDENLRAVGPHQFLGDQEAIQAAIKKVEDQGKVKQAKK
Sequence of hBPGM (P07738 whole entry, looked up): as the sequence (P07738 whole entry) above

Row | SMILES | EC50 [1] | IC50 [2] | EC50 [3]
1 | Cc1nc(COc2ncccn2)sc1-c1cccc(-c2ccc(S(=O)(=O)CC(=O)O)cc2)n1 [compound 2, 2-[4-[6-[4-methyl-2-(pyrimidin-2-yloxymethyl)thiazol-5-yl]-2-pyridyl]phenyl]sulfonylacetic Acid] | > 100000 nM |  | 
2 | Cc1nc(Cc2ccccc2)sc1-c1cccc(-c2cc(O)c(C(=O)O)cc2F)c1 [Example 105] |  | 1600 nM | 290 nM
3 | Cc1nc(COC2CCCOC2)sc1-c1cccc(-c2cc(C(=O)O)cs2)n1 (centres unmarked) [Example 49] |  | 350 nM | 520 nM
4 | COCCOCCOCCOCc1nc(C)c(-c2csc(-c3ccc(C(=O)O)cc3)n2)s1 [Example 270] |  | 4600 nM | > 25000 nM
5 | Cc1nc(Cc2ccccc2)sc1-c1csc(-c2ccc(C(=O)O)c(O)c2)n1 [Example 280] |  | 330 nM | 140 nM
6 | Cc1nc(COc2cc(C(F)(F)F)nn2C)sc1-c1cccc(-c2ccc(C(=O)O)cc2)n1 [Example 65] |  | 2600 nM | > 25000 nM
7 | Cc1nc(C)c(-c2csc(-c3ccc(C(=O)O)c(O)c3F)n2)s1 [Example 240] |  | 2300 nM | 2500 nM
8 | Cc1nc(COc2ccccn2)sc1-c1cccc(-c2ccc(C(=O)O)c(O)c2)c1 [compound 4, 2-hydroxy-4-[3-[4-methyl-2-(2-pyridyloxymethyl)thiazol-5-yl]phenyl]benzoic Acid] | 23500 nM |  | 
9 | Cc1nc(COc2ccc(Cl)cn2)sc1-c1cccc(-c2ccc(C(=O)O)c(O)c2)c1 [Example 74] |  | 1800 nM | 1100 nM
10 | Cc1nc(CNC(=O)C(C)(C)C)sc1-c1csc(-c2cc(O)c(C(=O)O)cc2F)n1 [Example 124] |  | 49 nM | 50 nM
11 | Cc1nc(C)c(-c2csc(-c3ccc(C(=O)O)c(O)c3)c2)s1 [Example 274] |  | 430 nM | 390 nM
12 | Cc1nc(C(C)NC(=O)c2cccnn2)sc1-c1csc(-c2cc(O)c(C(=O)O)cc2F)n1 (centres unmarked) [Example 151] |  | 65 nM | 70 nM
13 | Cc1nc(CN2CCCC2=O)sc1-c1cccc(-c2ccc(C(=O)O)c(O)c2)c1 [Example 260] |  | 1400 nM | 5600 nM
14 | Cc1nc(Cc2ccccc2)sc1-c1cccc(-c2cc(O)c(C(=O)O)cc2F)n1 [Example 162] |  | 140 nM | 60 nM
15 | Cc1ccc(OCc2nc(C)c(-c3cccc(-c4ccc(C(=O)O)c(O)c4)c3)s2)nc1 [Example 82] |  | 1100 nM | 210 nM
16 | Cc1nc(COc2ccn(C)n2)sc1-c1csc(-c2cc(O)c(C(=O)O)cc2F)n1 [Example 219] |  | 120 nM | 65 nM
17 | Cc1nc(CNC(=O)C(C)C)sc1-c1csc(-c2cc(O)c(C(=O)O)cc2F)n1 [Example 231] |  | 52 nM | 170 nM
18 | Cc1nc(CN2CCOC2=O)sc1-c1cccc(-c2ccc(C(=O)O)c(O)c2)c1 [Example 263] |  | 1300 nM | 1400 nM
19 | COC(=O)NCc1nc(C)c(-c2ccnc(-c3cc(O)c(C(=O)O)cc3F)n2)s1 [Example 155] |  | 310 nM | > 25000 nM
20 | Cc1cccc(Cc2nc(C)c(-c3cccc(-c4ccc(C(=O)O)c(O)c4)c3)s2)n1 [Example 279] |  | 2600 nM | 6900 nM
21 | COC(=O)NCc1nc(C)c(-c2csc(-c3cc(O)c(C(=O)O)c(F)c3F)n2)s1 [Example 135] |  | 40 nM | 70 nM
22 | Cc1cccnc1OCc1nc(C)c(-c2cccc(-c3ccc(C(=O)O)c(O)c3)c2)s1 [Example 86] |  | 1500 nM | 200 nM
23 | CC(=O)Nc1cccc(OCc2nc(C)c(-c3csc(-c4cc(O)c(C(=O)O)cc4F)n3)s2)n1 [Example 145] |  | 250 nM | 50 nM
24 | Cc1nc(COc2cccnc2)sc1-c1cccc(-c2ccc(C(=O)O)c(O)c2)c1 [Example 102] |  | 900 nM | 360 nM

Row | SMILES | EC50 [1] | IC50 [2] | EC50 [3]
25 | Cc1nc(CNC(=O)C2CC2)sc1-c1ccc(-c2ccc(C(=O)O)c(O)c2)s1 [Example 245] |  | 690 nM | 820 nM
26 | Cc1nc(CNC(=O)c2cccnn2)sc1-c1cccc(-c2ccc(C(=O)O)cc2)c1 [Example 71] |  | 560 nM | > 25000 nM
27 | Cc1nc(CNC(=O)C2CC2)sc1-c1csc(-c2ccc(C(=O)O)c(O)c2)n1 [Example 249] |  | 180 nM | 210 nM
28 | Cc1nc(Cn2c(C)cccc2=O)sc1-c1cccc(-c2ccc(C(=O)O)c(O)c2)c1 [Example 267] |  | 520 nM | 350 nM
29 | Cc1nc(CNc2ncccn2)sc1-c1csc(-c2cc(O)c(C(=O)O)cc2F)n1 [Example 149] |  | 30 nM | 70 nM
30 | Cc1nc(CNC(=O)C2CC2)sc1-c1csc(-c2cc(O)c(C(=O)O)cc2F)c1 [Example 233] |  | 78 nM | 110 nM
31 | Cc1nc(CNC(=O)c2cccnn2)sc1-c1cccc(-c2cc(O)c(C(=O)O)cc2F)n1 [Example 153] |  | 99 nM | 70 nM
32 | Cc1nc(C)c(-c2csc(-c3cc(O)c(C(=O)O)c(F)c3)n2)s1 [Example 255] |  | 760 nM | 1800 nM
33 | Cc1nc(COc2ccc(C#N)cn2)sc1-c1cccc(-c2ccc(C(=O)O)c(O)c2)c1 [Example 93] |  | 3300 nM | 270 nM
34 | Cc1nc(COc2ncccn2)sc1-c1cccc(-c2cnc(C(=O)O)s2)n1 [Example 94] |  | 11000 nM | > 25000 nM
35 | Cc1nc(CN)sc1-c1csc(-c2cc(O)c(C(=O)O)cc2F)c1 [Example 251] |  | 270 nM | 400 nM
36 | Cc1nc(CNC(=O)C2CCC2)sc1-c1csc(-c2cc(O)c(C(=O)O)cc2F)n1 [Example 220] |  | 52 nM | 63 nM
37 | Cc1nc(COC(=O)N2CCN(C)CC2)sc1-c1csc(-c2cc(O)c(C(=O)O)cc2F)n1 [Example 118] |  | 180 nM | 130 nM
38 | Cc1nc(COc2ccccn2)sc1-c1csc(-c2cc(O)c(C(=O)O)cc2F)c1 [Example 146] |  | 460 nM | 50 nM
39 | COC(=O)NCc1nc(C)c(-c2cccc(-c3cc(O)c(C(=O)O)cc3F)n2)s1 [Example 235] |  | 110 nM | 140 nM
40 | Cc1nc(CNC2CCCCC2)sc1-c1csc(-c2cc(O)c(C(=O)O)cc2F)n1 [Example 174] |  | 530 nM | 230 nM
41 | Cc1nc(C)c(-c2nsc(-c3ccc(C(=O)O)c(O)c3)n2)s1 [Example 283] |  | 1300 nM | 6500 nM
42 | Cc1nc(COc2ccccn2)sc1-c1cccc(-c2ccc(C(=O)O)c(O)c2)n1 [Example 128] |  | 190 nM | 79 nM
43 | Cc1nc(CNC(=O)C(C)(C)C)sc1-c1csc(-c2cc(O)c(C(=O)O)cc2F)c1 [Example 139] |  | 84 nM | 90 nM
44 | Cc1nc(C)c(-c2csc(-c3cc(O)c(C(=O)O)cc3F)n2)s1 [Example 285] |  | 320 nM | 400 nM
45 | Cc1nc(C)c(-c2csc(-c3ccc(C(=O)O)c(O)c3)n2)s1 [Example 184] |  | 1500 nM | 80 nM
46 | Cc1nc(Cn2cccn2)sc1-c1cccc(-c2ccc(C(=O)O)c(O)c2)c1 [Example 286] |  | 810 nM | 3100 nM
47 | Cc1nc(COc2ncccn2)sc1-c1csc(-c2cc(O)c(C(=O)O)cc2F)n1 [Example 137] |  | 28 nM | 20 nM
